Our source for the Actual control value values is patent publication US8486920B2, “Composition and method for controlling plant diseases” (priority 2008, dated 2013).

Read-outs that look alike come from different tables or passages of the source.

In the experiment the test system is Pythium ultimum, pathogen of cucumber damping-off. Type of experiment: in vivo. As to conditions: cucumber (Sagamihanjiro) seed treatment, 18° C., 13 days. The text has this:
An acetone solution of ethaboxam and an acetone solution of tolclofos-methyl were mixed to prepare mixed liquids containing ethaboxam and tolclofos-methyl in predetermined concentration. These mixed liquids were adhered on the surface of cucumber (Sagamihanjiro) seeds and allowed to stand still overnight. A plastic pot was filled with sandy soil and the seeds were disseminated on it. Then the seeds were covered with sandy soil which had been mixed with a bran medium on which Pythium ultimum, pathogen of cucumber damping-off, had been allowed to grow. They were irrigated and allowed to grow at 18° C. under humidity for 13 days, and thereafter control effect was checked.
As a comparison, acetone solutions containing ethaboxam in the predetermined concentration and acetone solutions containing tolclofos-methyl in the predetermined concentration were prepared and subjected to similar tests.
The incidence of disease was calculated by Equation 1 and the control value was calculated by Equation 2 based on the incidence of disease.
A: Incidence of disease of plant in untreated area
B: Incidence of disease of plant in treated area
E=X+Y−(X×Y)/100 “Equation 2”

The compound `CCNc1nc(CC)c(C(=O)NC(C#N)c2cccs2)s1` (stereo not shown) [Ethaboxam] came in with an Actual control value (ethaboxam alone 5 g ai/100 kg-seed) of 25% and an Actual control value (ethaboxam alone 10 g ai/100 kg-seed) of 58%.
The compound `COP(=S)(OC)Oc1c(Cl)cc(C)cc1Cl` [tolclofos-methyl] came in with an Actual control value (tolclofos-methyl alone 100 g ai/100 kg-seed) of 0.0% and an Actual control value (tolclofos-methyl alone 200 g ai/100 kg-seed) of 0.0%.
